Like-named read-outs stand apart in the source and are kept apart here.
Experiments:
in vitro [1] = assay: in vitro; design: species or system HB2, CCD841; conditions: human, hek293 cells
in vitro [2] = assay: in vitro; design: species or system HB2, HEK293; conditions: human, ccd841 cells
in vitro [3] = assay: in vitro; design: species or system CCD841, HEK293; conditions: human, hb2 cells, read-out: HB-2 Cells Viability (%)
NNMT (hNNMT) = target: T1, NNMT (hNNMT) (Homo sapiens, UniProt P40261); design: Intact protein LC/MS covalent labelling, fragments in pools of five, 200 uM each, 4 °C; conditions: 24 h, 4 °C, pool of five; 200 µM; covalent
T1 construct: wild type, N-terminal His6 tag kept (no cleavage described), E. coli, construct 31248 Da
T1 sequence (P40261 1-264): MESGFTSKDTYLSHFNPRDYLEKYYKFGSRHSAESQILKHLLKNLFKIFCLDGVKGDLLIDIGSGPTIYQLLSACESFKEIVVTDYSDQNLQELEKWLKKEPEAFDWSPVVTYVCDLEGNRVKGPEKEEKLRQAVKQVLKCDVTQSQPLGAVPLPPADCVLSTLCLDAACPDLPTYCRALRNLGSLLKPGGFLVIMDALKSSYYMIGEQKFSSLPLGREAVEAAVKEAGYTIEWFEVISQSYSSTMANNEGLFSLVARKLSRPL

NUDT7 = target: T2, NUDT7 (Homo sapiens, UniProt P0C024); design: Intact protein LC/MS covalent labelling, fragments in pools of five, 200 uM each, 4 °C; conditions: 24 h, 4 °C, pool of five; 200 µM; covalent
T2 construct: residues 14-235, E. coli, pNIC28-Bsa4, N-terminal His6 tag removed by TEV, construct 26672 Da

OTUB2 (OTUB2A) = target: T3, OTUB2 (OTUB2A) (Homo sapiens, UniProt Q96DC9); design: Intact protein LC/MS covalent labelling, fragments in pools of five, 200 uM each, 4 °C; conditions: 24 h, 4 °C, pool of five; 200 µM; covalent
T3 construct: full length residues 1-234, E. coli BL21(DE3)-R3, His tag removed by TEV, construct 27312 Da
T3 sequence (Q96DC9 1-234): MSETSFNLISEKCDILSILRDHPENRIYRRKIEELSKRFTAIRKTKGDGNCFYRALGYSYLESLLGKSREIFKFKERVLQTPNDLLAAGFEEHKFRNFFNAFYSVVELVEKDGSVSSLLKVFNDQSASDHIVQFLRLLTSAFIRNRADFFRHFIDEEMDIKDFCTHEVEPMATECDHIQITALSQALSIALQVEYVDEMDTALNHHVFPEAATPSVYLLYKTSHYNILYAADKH

PCAF = target: T4, PCAF (Homo sapiens, UniProt Q92831); design: Intact protein LC/MS covalent labelling, fragments in pools of five, 200 uM each, 4 °C; conditions: 24 h, 4 °C, pool of five; 200 µM; covalent
T4 construct: gene KAT2B

BSA = target: T5, BSA (Bos taurus, UniProt P02769); design: Intact protein LC/MS covalent labelling, fragments in pools of five, 200 uM each, 4 °C; conditions: 24 h, 4 °C, pool of five; 200 µM; covalent
T5 construct: gene ALB
T5 sequence (P02769 whole entry, the tested form may be a part): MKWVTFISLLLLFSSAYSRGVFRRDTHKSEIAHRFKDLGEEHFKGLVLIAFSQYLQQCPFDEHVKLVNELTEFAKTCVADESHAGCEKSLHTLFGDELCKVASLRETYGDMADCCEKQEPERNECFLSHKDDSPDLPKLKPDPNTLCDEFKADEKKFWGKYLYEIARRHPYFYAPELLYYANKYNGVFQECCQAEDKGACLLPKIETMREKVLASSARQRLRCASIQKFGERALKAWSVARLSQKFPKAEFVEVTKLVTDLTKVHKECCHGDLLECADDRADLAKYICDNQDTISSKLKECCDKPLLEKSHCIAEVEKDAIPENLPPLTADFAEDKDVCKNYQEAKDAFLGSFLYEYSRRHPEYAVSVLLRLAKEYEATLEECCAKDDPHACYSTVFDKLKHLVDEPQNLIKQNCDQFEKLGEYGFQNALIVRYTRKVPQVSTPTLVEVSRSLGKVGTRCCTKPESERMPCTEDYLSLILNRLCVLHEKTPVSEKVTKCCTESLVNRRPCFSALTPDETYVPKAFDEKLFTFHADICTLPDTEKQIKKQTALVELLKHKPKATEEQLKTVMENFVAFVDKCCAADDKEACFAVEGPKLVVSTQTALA

T4 sequence (Q92831 whole entry, the tested form may be a part): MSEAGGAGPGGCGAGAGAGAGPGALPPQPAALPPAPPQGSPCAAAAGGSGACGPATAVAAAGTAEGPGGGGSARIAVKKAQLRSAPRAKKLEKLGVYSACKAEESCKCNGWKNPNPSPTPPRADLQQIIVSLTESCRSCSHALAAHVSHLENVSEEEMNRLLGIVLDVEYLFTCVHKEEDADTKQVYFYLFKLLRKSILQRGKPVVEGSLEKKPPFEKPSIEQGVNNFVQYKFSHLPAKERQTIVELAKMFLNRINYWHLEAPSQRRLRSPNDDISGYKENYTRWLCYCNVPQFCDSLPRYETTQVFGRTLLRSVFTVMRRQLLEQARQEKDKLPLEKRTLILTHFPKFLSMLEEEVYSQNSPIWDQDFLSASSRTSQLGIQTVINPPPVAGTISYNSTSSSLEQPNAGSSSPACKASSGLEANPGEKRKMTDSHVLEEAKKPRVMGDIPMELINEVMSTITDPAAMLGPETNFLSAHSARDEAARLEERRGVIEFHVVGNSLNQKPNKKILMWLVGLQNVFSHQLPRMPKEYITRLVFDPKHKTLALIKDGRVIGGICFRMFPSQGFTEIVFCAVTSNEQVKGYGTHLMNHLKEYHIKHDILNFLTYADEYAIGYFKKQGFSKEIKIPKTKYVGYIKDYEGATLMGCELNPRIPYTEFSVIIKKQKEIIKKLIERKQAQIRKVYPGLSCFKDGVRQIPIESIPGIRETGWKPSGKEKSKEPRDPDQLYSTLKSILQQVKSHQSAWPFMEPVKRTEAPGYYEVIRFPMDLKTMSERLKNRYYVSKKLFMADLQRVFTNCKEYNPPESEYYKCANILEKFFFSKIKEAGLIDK
T2 sequence (P0C024 14-235): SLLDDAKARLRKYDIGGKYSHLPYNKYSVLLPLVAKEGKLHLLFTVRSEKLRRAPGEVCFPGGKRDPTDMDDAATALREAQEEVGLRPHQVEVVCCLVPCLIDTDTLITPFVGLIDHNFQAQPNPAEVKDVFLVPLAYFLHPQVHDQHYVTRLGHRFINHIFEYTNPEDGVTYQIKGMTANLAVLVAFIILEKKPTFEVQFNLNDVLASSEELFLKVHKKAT

Row | NNMT (NNMT (hNNMT)) | NUDT7 (NUDT7) | OTUB2 (OTUB2 (OTUB2A)) | PCAF (PCAF) | BSA (BSA) | SMILES | viability at 48 h, 10 µM (in vitro [1]) | viability at 48 h, 10 µM (in vitro [2]) | viability at 48 h, 10 µM (in vitro [3])
1 | 0.34 | 0.37 | 0.86 | 0 | 0 | N#Cc1oc2ccccc2c1NC(=O)CCl [PCM-0102252] | 3.4% | 34.7% | 3.8%
2 | 0.23 | 0 | 0.24 | 0 | 0 | CCOC(=O)N1CCC(NC(=O)CCl)CC1 [PCM-0102255] | 74.2% | 61.3% | 61.8%
3 | 0 | 0 | 0 | 0 | 0 | CNC(=O)c1ccc(NC(=O)CCl)cc1 [PCM-0102267] | 2.2% | 32.5% | 20%
4 | 0 | 0 | 0.19 | 0 | 0 | Cl.O=C(CCl)N1CCN(Cc2cccc(Cl)c2)CC1 [PCM-0102269] | 7.9% | 24.2% | 6.3%
5 | 0 | 0 | 0 | 0 | 0 | C=CC(=O)Nc1ccc(C(=O)O)cc1 [PCM-0102271] | 95.1% | 94.2% | 111%
6 | 0 | 0 | 0 | 0 | 0 | O=C(CCl)Nc1cccnc1Cl [PCM-0102274] | 81.4% | 88.8% | 84.4%
7 | 0.26 | 0 | 0.09 | 0 | 0.11 | Cl.O=C(CCl)N1CCN(Cc2ccc(Cl)s2)CC1 [PCM-0102277] | 18.2% | 37.3% | 8.6%
8 | 0 | 0.14 | 0 | 0 | 0 | O=C(CCl)N1CCN(S(=O)(=O)c2ccccc2F)CC1 [PCM-0102281] | 9.5% | 62.6% | 7.1%
9 | 0.19 | 0 | 0 | 0 | 0 | CC(=O)c1ccccc1NC(=O)CCl [PCM-0102282] | 87.2% | 90.3% | 102%
10 | 0.77 | 0.12 | 0.26 | 0 | 0 | O=C(CCl)Nc1cccc(C(F)(F)F)c1 [PCM-0102290] | 2.3% | 40% | 9.5%
11 | 0.15 | 0.35 | 0 | 0 | 0 | O=C(CCl)N1CCN(c2ccccc2Cl)CC1 [PCM-0102297] | 3.9% | 52% | 2.3%
12 | 0.24 | 0.08 | 0.13 | 0 | 0 | CC(C)(C)NC(=O)CN1CCN(C(=O)CCl)CC1.Cl [PCM-0102302] | 84.4% | 98.9% | 97%
13 | 0 | 0 | 0 | 0 | 0 | CN(C)C(=O)CN1CCN(C(=O)CCl)CC1.Cl [PCM-0102304] | 128% | 114% | 107%
14 | 0 | 0.12 | 0.19 | 0 | 0 | CN1C(=O)c2ccc(NC(=O)CCl)cc2C1=O [PCM-0102309] | 67.2% | 61.2% | 52.5%
15 | 0 | 0 | 0.18 | 0 | 0 | CC(=O)NNC(=O)CCl [PCM-0102310] | 84.1% | 90.3% | 96.1%
16 | 0.2 | 0.17 | 0.1 | 0 | 0 | O=C(CCl)Nc1cc2ccccc2cc1C(=O)O [PCM-0102311] | 109% | 100% | 105%
17 | 0.32 | 0.18 | 0 | 0 | 0 | NC(=O)c1ccsc1NC(=O)CCl [PCM-0102314] | 33.7% | 74.4% | 58.5%
18 | 0 | 0 | 0 | 0 | 0.12 | CC1(C)C2CCC1(C)C(NC(=O)CCl)C2 (stereo not drawn) [PCM-0102315] | 75.9% | 95% | 84.4%
19 | 0.18 | 0.4 | 0 | 0 | 0 | COC(=O)c1c(NC(=O)CCl)sc(C)c1C [PCM-0102322] | 33.3% | 80% | 62.5%
20 | 0.71 | 1 | 0 | 0 | 0 | COc1ccc2nc(NC(=O)CCl)sc2c1 [PCM-0102330] | 39.7% | 44.6% | 32.7%
21 | 0 | 0 | 0.19 | 0 | 0 | O=C(CCl)Nc1ccnn1C1CCCC1 [PCM-0102336] | 7.7% | 60.4% | 41.3%
22 | 0.53 | 0 | 0.45 | 0 | 0 | Cc1oc(NC(=O)CCl)c(C#N)c1C [PCM-0102337] | 82.9% | 56.4% | 56.5%
23 | 0.7 | 0.18 | 0.82 | 0 | 0 | Cc1ccc(NC(=O)CCl)cc1C [PCM-0102339] | 1.5% | 34.9% | 5.2%
24 | 0.26 | 0 | 0.17 | 0 | 0 | Cc1cccc(CN2CCN(C(=O)CCl)CC2)c1 [PCM-0102340] | 15.3% | 42.4% | 19.6%
25 | 0 | 0 | 0.66 | 0 | 0 | CC(C)(C)c1ccc(C(=O)NNC(=O)CCl)cc1 [PCM-0102355] | 53.7% | 44.3% | 48.1%
26 | 0 | 0 | 0 | 0 | 0 | CN(C)C(=O)CNC(=O)CCl [PCM-0102365] | 95.6% | 100% | 103%

Row | SMILES | NNMT (NNMT (hNNMT)) | NUDT7 (NUDT7) | OTUB2 (OTUB2 (OTUB2A)) | PCAF (PCAF) | BSA (BSA) | viability at 48 h, 10 µM (in vitro [1]) | viability at 48 h, 10 µM (in vitro [2]) | viability at 48 h, 10 µM (in vitro [3])
27 | CC(C)N(C(=O)CCl)c1ccccc1 [PCM-0102272] | 0 | 0.22 | 0 | 0 | 0 | 16% | 17.7% | 58.6%

— paper PMC6556873, “Rapid Covalent-Probe Discovery by Electrophile-Fragment Screening” (Journal of the American Chemical Society, 2019)
